Data on four compounds can be found in ChEMBL document CHEMBL5107972 (RSC Med Chem, 2022).

Type in all cases: functional
The test system of test [1] is Mycobacterium tuberculosis. Description: Antitubercular activity against clinical isolate isoniazid-resistant Mycobacterium tuberculosis ATCC 35822 assessed as inhibition of bacterial growth incubated for 7 days by Presto blue resazurin microtiter plate assay. Conditions: ATCC 35822, 168 h, time 7 day.
The test system of test [2] is Mycobacterium tuberculosis. Kind of test: Antitubercular activity against clinical isolate ethambutol-resistant Mycobacterium tuberculosis ATCC 35837 assessed as inhibition of bacterial growth incubated for 7 days by Presto blue resazurin microtiter plate assay. The conditions noted are these: ATCC 35837, 168 h, time 7 day.
Test [3] concerns Mycobacterium tuberculosis. Description: Antitubercular activity against clinical isolate streptomycin-resistant Mycobacterium tuberculosis ATCC 35820 assessed as inhibition of bacterial growth incubated for 7 days by Presto blue resazurin microtiter plate assay. The conditions noted are these: ATCC 35820, 168 h, time 7 day.
Test [4] deals with Mycobacterium tuberculosis. Kind of test: Antitubercular activity against clinical isolate rifampicin-resistant Mycobacterium tuberculosis ATCC 35838 assessed as inhibition of bacterial growth incubated for 7 days by Presto blue resazurin microtiter plate assay. Conditions: ATCC 35838, 168 h, time 7 day. (Alamar Blue is a resazurin reagent that responds to reducing activity.)

Structures are written as SMILES. In brackets after ≈: the same amount, converted by molar mass.

As a reminder, the MIC is the smallest concentration in the dilution series that meets the test's criterion for growth inhibition. Regarding `CC[C@@H](CO)NCCN[C@@H](CC)CO` [ETHAMBUTOL], the MIC in test [1] came out at 4 µg/mL (≈ 19.6 µM); in test [2], 32 µg/mL (≈ 157 µM); in test [3] it was 2 µg/mL (≈ 9.79 µM); in test [4], 2 µg/mL (≈ 9.79 µM).
Take `NNC(=O)c1ccncc1` [ISONIAZID]: the MIC in test [1] was greater than 64 µg/mL; in test [2], 0.03 µg/mL (≈ 0.219 µM); in test [3], 0.03 µg/mL (≈ 0.219 µM); in test [4], 0.03 µg/mL (≈ 0.219 µM).
As for `CO[C@H]1/C=C/O[C@@]2(C)Oc3c(C)c(O)c4c(O)c(c(/C=N/N5CCN(C)CC5)c(O)c4c3C2=O)NC(=O)/C(C)=C\C=C\[C@H](C)[C@H](O)[C@@H](C)[C@@H](O)[C@@H](C)[C@H](OC(C)=O)[C@@H]1C` [RIFAMPIN], the MIC in test [1] is 0.03 µg/mL (≈ 0.0365 µM); in test [2] it was 0.03 µg/mL (≈ 0.0365 µM); in test [3], 0.03 µg/mL (≈ 0.0365 µM); in test [4], 64 µg/mL (≈ 77.8 µM).
Regarding `CN[C@@H]1[C@H](O[C@H]2[C@H](O[C@H]3[C@H](O)[C@@H](O)[C@H](N=C(N)N)[C@@H](O)[C@@H]3N=C(N)N)O[C@@H](C)[C@]2(O)C=O)O[C@@H](CO)[C@H](O)[C@H]1O` [STREPTOMYCIN], the MIC in test [1] is 1 µg/mL (≈ 1.72 µM); in test [2], 1 µg/mL (≈ 1.72 µM); in test [3], greater than 64 µg/mL; in test [4], 1 µg/mL (≈ 1.72 µM).
